Data as given in patent US20230159606A1, “PHARMACEUTICAL COMPOSITIONS FOR GLUCAGON AND GLP-1 CO-AGONIST PEPTIDES” (MEDIMMUNE LIMITED, priority 2019, published 2023).

How the values were obtained:
all microorganisms = test: Preservative efficacy test (PET), overall compliance with European Pharmacopeia / USP criteria; type: cell-based
Method: (§2) In preservative efficacy assays, a short study was performed whereby two microorganisms were used to assess the microbial efficacy of the prepared formulations (Staphylococcus aureus and E. coli). Samples were tested at t=0 (bulk) and t=1 month after storage at 25° C.
A multivariate robustness study was carried out to investigate the impact of m-cresol content, sodium phosphate concentration, and m-cresol content on the preservative efficacy of the 5 mg/mL multi-dose formulation. […] A total of 20 bulk formulations were prepared and tested in accordance with the European Pharmacopeia Edition 10.0 Section 5.1.3 and the United States Pharmacopeia 42 <51>.

[1] = MEDI0382 solubility studies (buffers, ionic strength, water, organic solvents, aqueous pH); type: physicochemical
Method: The aqueous pH solubility of MEDI0382 was also assessed.

[2] = Method: The solubility and pH stability of the GLP-1/glucagon agonist peptide MEDI0382 (FIG. 1) were studied. In particular, solubility was studied in different types of buffers, different buffer ionic strengths, pure water, and organic solvents. The aqueous pH solubility of MEDI0382 was also assessed. The chemical stability (as measured by reverse phase ultra performance liquid chromatography (RP-UPLC)) and secondary structure (as measured by Fourier transform infrared spectroscopy (FTIR) and UV circular dichoism spectroscopy (CD)) were also assessed at various pHs. Furthermore, the effect of pH on the kinetics of MEDI0382 aggregation were also assessed in a thioflavin T binding (ThT) assay. […]
The six selected formulations were used in a 1-month stability study at refrigerated (2-8° C.) and stressed conditions (37° C.). Samples were assessed at time zero, 2 weeks, and 4 weeks by RP-UPLC, DLS, Visual Inspection, Micro-Flow Imaging (MFI), Size Exclusion Chromatography-Multi-Angle Light Scattering (SEC-MALS). […]
(§1) The fiber formation was again evaluated using a ThT assay. […] Chemical degradation associated with these excipients was also monitored for one month for samples kept at 5° C. and 40° C. using an RP-UPLC assay. […] Particle formation associated with these excipients was also monitored by visual inspection after shaking stress (800 rpm for 4 hours). […]

[3] = Secondary structure by FTIR and UV circular dichroism; type: physicochemical
[4] = remark: listed apart in the source
Method: The solubility and pH stability of the GLP-1/glucagon agonist peptide MEDI0382 (FIG. 1) were studied. In particular, solubility was studied in different types of buffers, different buffer ionic strengths, pure water, and organic solvents. The aqueous pH solubility of MEDI0382 was also assessed. The chemical stability (as measured by reverse phase ultra performance liquid chromatography (RP-UPLC)) and secondary structure (as measured by Fourier transform infrared spectroscopy (FTIR) and UV circular dichoism spectroscopy (CD)) were also assessed at various pHs. Furthermore, the effect of pH on the kinetics of MEDI0382 aggregation were also assessed in a thioflavin T binding (ThT) assay.
The effect of excipients on fiber formation was analyzed by evaluating whether or not amino acids and divalent ions could prevent fiber formation at pH 7.5. […] The fiber formation was evaluated using a Thioflavin T binding assay (ThT) assay.
as §1

[5] = Dynamic Light Scattering (DLS): particle size, Z-average, hydrodynamic diameter; type: physicochemical; details: 50 mM PB pH 7.5, 1.85% w/v PG, 0.03% v/v PS80; one month
Method: The principles for formulation ranking used in Table 3 were the loss of peptide purity (main area peak/total peak area) at accelerated conditions (purity loss≤3% per 1 week at 40° C., low risk; purity loss>5% week at 40° C.=high risk) and physical stability at 40 or 5° C. (Z-average<10 nm=low risk, >10 nm=medium risk; >100 nm=high risk).
The six selected formulations were used in a 1-month stability study at refrigerated (2-8° C.) and stressed conditions (37° C.). Samples were assessed at time zero, 2 weeks, and 4 weeks by RP-UPLC, DLS, Visual Inspection, Micro-Flow Imaging (MFI), Size Exclusion Chromatography-Multi-Angle Light Scattering (SEC-MALS).
Purity (RP-UPLC), aggregation (DLS), peptide concentration (A280), High order structure (SEC-MALS)(multiangle (laser) light scattering), Sub-visible particles (MFI), Osmolarity, Conformational stability (Circular dichroism (CD) spectroscopy) and pH tests were conducted. The following temperatures were tested: 5° C., 15° C.; 25° C., 40° C. and −80° C. The following time points were tested: 0, 2 weeks, 1, 2, 3, 6, 9, 12, 24 and 36 months.
In another set of experiments, the impact of sorbitol (0-250 mM), propylene glycol (0-2%), and phenol (0-2%) in a pH range 7-8.2 on the physical stability of MEDI0382 was explored. Physical stability was monitored using DLS (DynaPro plate reader, Wyatt) and the ThT assay.

[6] = Visual inspection: gel formation, particles, shaking and freeze/thaw stress; type: physicochemical
Method: Samples were stressed by temperature and freeze/thaw and analyzed for purity, aggregation, visual inspection, and for the presence of sub-visible particles.
In the freeze/thaw studies, the formulation was tested in the presence or absence of polysorbate 80 (0.3% v/v) with either 2 mg/ml or 5 mg/ml protein. Fresh solutions (glass vials, Type I, transparent) were frozen by three freeze/thaw cycles. After the thawing, samples were kept at 5 and 25° C. for up to 3 weeks and analysed by visual inspection. Samples without freezing were run in parallel as control. In a second study, the container closer compatibility was assessed by using Nalgene HDPE (more suitable for toxicological studies). In this case, only formulation at 5 mg/mL was analysed.
In these experiments, formulations with 0.03% polysorbate 80 were compared to formulations without polysorbate 80. The samples were incubated for 7 days at 50° C. […] All of the samples were then incubated for another 12 days.

[7] = Container compatibility: syringe stability and adsorption to containers; type: physicochemical; details: 50 mM Phosphate buffer, 1.85% (w/v) propylene glycol, pH 7.4
Method: The chemical stability of MEDI0382 was tested in 50 mM Phosphate buffer, 1.85% (w/v) of propylene glycol, pH 7.4.
This MEDI0382 formulation was stable in BD Plastipak syringes for at least 4 hours at room temperature.
However, an adsorption of the peptide to the containers at low levels of dosing (below 0.1 mg/ml) was identified. This MEDI0382 formulation was ruled out because the low doses of drug likely to be required to achieve a pharmacological (agonistic) effect could not feasibly be delivered in this way.

Staphylococcus aureus = test: Preservative efficacy test (PET; Ph. Eur. / USP), S. aureus; details: 5.5 mg/mL MEDI0382 multi-dose formulation
Method: as §2
Preservative efficacy testing (PET) was also performed on 2 and 5 mg/ml MEDI0382 formulations containing 20 mM sodium phosphate buffer, 220 mM sorbitol, and m-Cresol (at the concentrations indicated in Table 35) at pH.
A total of 20 bulk formulations were prepared and tested in accordance with the European Pharmacopeia Edition 10.0 Section 5.1.3 and the United States Pharmacopeia 42 <51>.

Cc1cccc(O)c1 [Hedinger m-Cresol, m-Cresol]
European criteria passed (PET) (all microorganisms; highest concentrations tested, S. aureus and E. coli): passed the more stringent European (“A”) criteria

CCCCCCCCCCCCCCCC(=O)N[C@@H](CCC(=O)NCCCC[C@H](NC(=O)[C@H](CC(=O)O)NC(=O)[C@H](CO)NC(=O)[C@@H](NC(=O)[C@H](Cc1ccccc1)NC(=O)[C@@H](NC(=O)CNC(=O)[C@H](CCC(N)=O)NC(=O)[C@H](CO)NC(=O)[C@@H](N)Cc1c[nH]cn1)[C@@H](C)O)[C@@H](C)O)C(=O)N[C@@H](CO)C(=O)N[C@@H](CCC(=O)O)C(=O)N[C@@H](Cc1ccc(O)cc1)C(=O)N[C@@H](CC(C)C)C(=O)N[C@@H](CC(=O)O)C(=O)N[C@@H](CO)C(=O)N[C@@H](CCC(=O)O)C(=O)N[C@@H](CCCNC(=N)N)C(=O)N[C@@H](C)C(=O)N[C@@H](CCCNC(=N)N)C(=O)N[C@@H](CC(=O)O)C(=O)N[C@@H](Cc1ccccc1)C(=O)N[C@H](C(=O)N[C@@H](C)C(=O)N[C@@H](Cc1c[nH]c2ccccc12)C(=O)N[C@@H](CC(C)C)C(=O)N[C@@H](CCC(=O)O)C(=O)N[C@@H](C)C(=O)NCC(=O)NCC(=O)O)C(C)C)C(=O)O [MEDI0382]
Organic solvent solubility [1]: Low
Physical state [1]: Amorphous powder, hygroscopic, sensitive
Preferable buffers solubility [1]: Sodium phosphate and TRIS
solubility ([1]; buffers of different ionic strengths, read-out: Ranges of ionic strength solubility): ≥ 25 mM
Aqueous solution pH solubility ([1]; pH 1 to 3 and 6 to 13): increases at pH 1 to 3 and 6 to 13
Aqueous solution pH solubility ([1]; pH 4.1 to 4.5): Insoluble at pH 4.1 to 4.5, solubility
pH at which both physical and chemical stability are improved [2]: ≥ 8
pH impact on secondary structure [3]: increases α-helix in alkaline conditions (7 to 8)
optimal pH for physical stability [4]: > 7.8
pH impact on aggregation kinetics: lag time ([4]; pH 8): kinetics (higher lag time at pH 8 (93 hours),
Z-average values (DLS) [5]: increased sharply over the month at all temperatures, except at −80 °C
gel formation ([6]; 0.03% polysorbate 80, pH 6.9, 7 days at 50° C.): turned into a solid gel
gel formation ([6]; 0.03% polysorbate 80, pH 8.3, 7 days at 50° C.): did not
visual inspection ([6]; 50 mM PB pH 7.5, 1.85% w/v PG, 0.03% v/v PS80, 2-month storage): gel-like-appearance
gel formation ([6]; without polysorbate 80, pH 6.9, another 12 days): turned into a soft gel
concentration at which adsorption of the peptide to the containers was identified [7]: below 0.1 mg/ml
time stable in BD Plastipak syringes ([7]; room temperature): at least 4 hours

Cc1cccc(O)c1 [meta-cresol]
minimum meta-cresol needed to achieve Ph. Eur. Criteria A (all microorganisms): ≥ 0.34 % (w/v)
minimum meta-cresol needed to consistently achieve Ph. Eur. Criteria B (all microorganisms): ≥ 0.27 % (w/v)
m-cresol concentration at which USP and EP criteria A are consistently met for all microorganisms except Staphylococcus aureus (EP criteria B met) (all microorganisms; 5.5 mg/mL MEDI0382 multi-dose formulation): ≥ 0.24 % (w/v)
m-cresol concentration required for a log reduction consistently greater than 3 at 24 hours (Staphylococcus aureus): ≥ 0.28 % (w/v)

Oc1ccccc1 [phenol]
phenol concentration needed to achieve the less stringent European (“B”) criteria (all microorganisms; with 1 mg/mL MEDI0382): at least 0.44 % w/v
phenol concentration needed to achieve the less stringent European (“B”) criteria (all microorganisms; with 2 mg/mL MEDI0382): at least 0.54 % w/v
